Some test systems named below: ACHN; BT-549; CAKI-1; COLO 205; DU-145; HCT-116; HL-60; IGROV-1; MDA-MB-435; NCI-H23; NCI-H522; NCI/ADR-RES; OVCAR-3; OVCAR-4; OVCAR-8; PC-3; SNB-19; SR; U-251; UACC-257.
Common to all, as to assay: inhibition of tumour cell growth, NCI panel, 48 h

Molecules are shown by their SMILES.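 How tested: cells in 96-well plates exposed to compound for 48 hours at five concentrations. The concentration for 50% growth inhibition is given as GI50.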 Calls of active or inactive are those of the source. No stated cut-off is given here; in the data, active = GI50 up to about 1.1 µM and inactive = higher. Some results are limits rather than exact numbers.

In the case of `COc1ccccc1-n1nnc2c(N)nc(N)nc21`, the GI50 with ACHN, in the assay on BT-549, with CAKI-1, with COLO 205, in the assay on DU-145 and in the assay on HCT-116 was > 100 µM (inactive) throughout. The GI50 in the assay on HL-60, in the assay with IGROV-1, with MDA-MB-435, in the assay with NCI-H23, with NCI-H522 and with NCI/ADR-RES was > 100 µM (inactive) throughout. Besides, the GI50 in the assay with OVCAR-3, in the assay with OVCAR-4, in the assay on OVCAR-8, in the assay on PC-3, in the assay with SNB-19 and with SR was > 100 µM (inactive) each time. For the same compound, the GI50 in the assay on U-251 and with UACC-257 was > 100 µM (inactive) in each case.
For `Cc1ccccc1OC(C)C(=O)NN1C(=O)CC(=O)N(c2ccc(Cl)cc2)C1=S` (stereo not given), the GI50 in the assay on ACHN is 33.8 µM (inactive); in the assay with BT-549, 37.2 µM (inactive); with CAKI-1, 37.8 µM (inactive); with COLO 205, 23.3 µM (inactive); in the assay on DU-145, 36.1 µM (inactive); with HCT-116, 22.2 µM (inactive). The GI50 was 13.4 µM (inactive) in the assay on HL-60; 49.9 µM (inactive) in the assay with IGROV-1; 49.3 µM (inactive) with MDA-MB-435; 31 µM (inactive) in the assay on NCI-H23; 32.3 µM (inactive) in the assay on NCI-H522; 29.4 µM (inactive) in the assay on NCI/ADR-RES. In addition, the GI50 was 37.1 µM (inactive) in the assay with OVCAR-3; 38.5 µM (inactive) in the assay with OVCAR-4; 34.1 µM (inactive) in the assay with OVCAR-8; 31.9 µM (inactive) with PC-3; 61.1 µM (inactive) in the assay on SNB-19; 26 µM (inactive) with SR. Besides, the GI50 with U-251 is 34.1 µM (inactive); with UACC-257, 30 µM (inactive).
`N#CCC(=O)N/N=C(\CCN1CCCC1)CC(c1ccccc1)c1c(O)c2ccccc2oc1=O` (stereo not given): the GI50 with ACHN was > 60.4 µM (inactive); in the assay with BT-549 it was 47.5 µM (inactive); in the assay on CAKI-1, > 95.3 µM (inactive); in the assay with COLO 205, 25.5 µM (inactive); in the assay on DU-145 it was > 100 µM (inactive); in the assay on HCT-116, > 84.1 µM (inactive). The GI50 was 24.5 µM (inactive) in the assay with HL-60; > 100 µM (inactive) in the assay on IGROV-1; 57 µM (inactive) in the assay with MDA-MB-435; 97.1 µM (inactive) with NCI-H23; 70.6 µM (inactive) in the assay with NCI-H522; 56.4 µM (inactive) in the assay on NCI/ADR-RES. Besides, the GI50 in the assay on OVCAR-3 is 65.3 µM (inactive); in the assay on OVCAR-4, > 86.3 µM (inactive); with OVCAR-8, > 95.5 µM (inactive); in the assay on PC-3, 64.7 µM (inactive); with SNB-19, > 100 µM (inactive); with SR, 29.4 µM (inactive). For the same compound, the GI50 is 82.6 µM (inactive) in the assay with U-251 and > 70.6 µM (inactive) with UACC-257.
Turning to `COc1ccc(-n2c(C)nc3ccc(/N=C/c4ccccc4)cc3c2=O)cc1`, the GI50 with ACHN, in the assay on BT-549, with CAKI-1, in the assay with COLO 205, in the assay on DU-145 and in the assay on HCT-116 was > 100 µM (inactive) each time. Moreover, the GI50 in the assay with HL-60, with IGROV-1, with MDA-MB-435, with NCI-H23, with NCI-H522 and in the assay on NCI/ADR-RES was > 100 µM (inactive) throughout. Further, the GI50 with OVCAR-3, in the assay on OVCAR-4, in the assay on OVCAR-8, with PC-3, with SNB-19 and in the assay with SR was > 100 µM (inactive) throughout. For the same compound, the GI50 with U-251 and in the assay on UACC-257 was > 100 µM (inactive) throughout.
`OC12C3C4CC5C(C4[C@@H]1Br)C2[C@@](O)(c1c(F)c(F)c(F)c(F)c1F)C53` (stereo not given in full): the GI50 in the assay with ACHN was 51.1 µM (inactive); with BT-549, 39.4 µM (inactive); in the assay on CAKI-1, 21.1 µM (inactive); in the assay with COLO 205 it was 39.4 µM (inactive); in the assay with DU-145, 41.8 µM (inactive); with HCT-116, 30.8 µM (inactive). For the same compound, the GI50 is 38.2 µM (inactive) with HL-60; 35.6 µM (inactive) in the assay on IGROV-1; 37.6 µM (inactive) with MDA-MB-435; 31.7 µM (inactive) in the assay on NCI-H23; 29.6 µM (inactive) with NCI-H522; 27.2 µM (inactive) with NCI/ADR-RES. Moreover, the GI50 in the assay on OVCAR-3 was 23.3 µM (inactive); in the assay with OVCAR-4, 28.2 µM (inactive); in the assay on OVCAR-8, 32 µM (inactive); in the assay on PC-3, 23.3 µM (inactive); in the assay on SNB-19 it was 37.2 µM (inactive); in the assay on SR, 21.3 µM (inactive). The GI50 was 38 µM (inactive) in the assay with U-251 and 24.8 µM (inactive) with UACC-257.
Regarding `CC(=O)Oc1ccc2c(c1)c1c(=O)oc(C)nc1n2Cc1ccccc1`, the GI50 in the assay with ACHN was 28.7 µM (inactive); in the assay on BT-549 it was 17.4 µM (inactive); in the assay with CAKI-1, 4.99 µM (inactive); with COLO 205, 24.6 µM (inactive); with DU-145, > 55.7 µM (inactive); with HCT-116, 40.5 µM (inactive). For the same compound, the GI50 with HL-60 is 57.7 µM (inactive); in the assay on IGROV-1 it was 51.4 µM (inactive); in the assay on MDA-MB-435, 28.3 µM (inactive); with NCI-H23, > 63.5 µM (inactive); in the assay with NCI-H522 it was 12 µM (inactive); in the assay on NCI/ADR-RES it was 31.3 µM (inactive). The GI50 was 77.6 µM (inactive) in the assay on OVCAR-3; > 75.7 µM (inactive) with OVCAR-4; 37.2 µM (inactive) in the assay on OVCAR-8; 41.8 µM (inactive) in the assay with PC-3; 69.8 µM (inactive) in the assay on SNB-19; > 52.4 µM (inactive) with SR. In addition, the GI50 with U-251 was 30.9 µM (inactive); in the assay on UACC-257, > 100 µM (inactive).
Take `O=C(O)c1nnsc1-c1ccc(-c2snnc2C(=O)O)cc1`: the GI50 with ACHN was > 100 µM (inactive); in the assay on BT-549 it was > 100 µM (inactive); with CAKI-1 it was 58.7 µM (inactive); with COLO 205 it was > 100 µM (inactive); in the assay on DU-145, > 100 µM (inactive); with HCT-116, > 100 µM (inactive). In addition, the GI50 was 37.7 µM (inactive) in the assay on HL-60; > 100 µM (inactive) in the assay on IGROV-1; 48.2 µM (inactive) with MDA-MB-435; > 100 µM (inactive) in the assay on NCI-H23; 56.6 µM (inactive) with NCI-H522; > 100 µM (inactive) in the assay with NCI/ADR-RES. The GI50 was 91.2 µM (inactive) in the assay with OVCAR-3; 29.6 µM (inactive) in the assay on OVCAR-4; > 100 µM (inactive) in the assay with OVCAR-8; 85.9 µM (inactive) in the assay with PC-3; > 100 µM (inactive) in the assay with SNB-19; 10.5 µM (inactive) with SR. For the same compound, the GI50 in the assay on U-251 and in the assay with UACC-257 was > 100 µM (inactive) each time.
Turning to `COc1ccc(C(=O)/C=C2\C(=O)Nc3ccc(Br)cc32)cc1`, the GI50 in the assay on ACHN was 1.89 µM (inactive); in the assay on BT-549, 5.75 µM (inactive); with CAKI-1, 8.63 µM (inactive); with COLO 205, 2.3 µM (inactive); in the assay with DU-145, 7.48 µM (inactive); with HCT-116, 4.05 µM (inactive). The GI50 with HL-60 is 1.99 µM (inactive); in the assay with IGROV-1 it was 2.84 µM (inactive); with MDA-MB-435 it was 6.75 µM (inactive); in the assay on NCI-H23 it was 4.27 µM (inactive); in the assay with NCI-H522, 4.03 µM (inactive); in the assay on NCI/ADR-RES, 1.71 µM (inactive). In addition, the GI50 is 2.97 µM (inactive) with OVCAR-3; 16.5 µM (inactive) in the assay with OVCAR-4; 2.07 µM (inactive) in the assay with OVCAR-8; 6.68 µM (inactive) with PC-3; 16.7 µM (inactive) in the assay on SNB-19; 2.96 µM (inactive) in the assay on SR. The GI50 was 14.2 µM (inactive) in the assay on U-251 and 11.3 µM (inactive) in the assay with UACC-257.
Turning to `C[n+]1ccccc1/C1=c2\cc/c([nH]2)=C(\c2cccc[n+]2C)C2=N/C(=C(/c3cccc[n+]3C)C3C=CC(N3)/C(c3cccc[n+]3C)=C3/C=CC1=N3)C=C2`, the GI50 in the assay with ACHN was > 100 µM (inactive); in the assay with BT-549, > 100 µM (inactive); with CAKI-1 it was > 100 µM (inactive); with COLO 205, 75.2 µM (inactive); with DU-145, > 100 µM (inactive); in the assay with HCT-116, 46.3 µM (inactive). The GI50 is > 100 µM (inactive) in the assay with HL-60; 92.9 µM (inactive) in the assay with IGROV-1; 57 µM (inactive) with MDA-MB-435; > 100 µM (inactive) in the assay with NCI-H23; > 100 µM (inactive) in the assay on NCI-H522; > 100 µM (inactive) in the assay with NCI/ADR-RES. For the same compound, the GI50 with OVCAR-3 is 58.7 µM (inactive); with OVCAR-4, > 100 µM (inactive); with OVCAR-8 it was > 100 µM (inactive); in the assay with PC-3, > 100 µM (inactive); with SNB-19, > 100 µM (inactive); in the assay on SR, 15.6 µM (inactive). In addition, the GI50 in the assay on U-251 and with UACC-257 was > 100 µM (inactive) in each case.
In the case of `C[C@H]1COC2=C1C(=O)C(=O)c1c2ccc2c1CCCC2(C)C` [CRYPTOTANSHINONE], the GI50 in the assay on ACHN was 3.6 µM (inactive); in the assay on BT-549, 2.11 µM (inactive); in the assay with CAKI-1 it was 8.22 µM (inactive); in the assay on COLO 205, 1.15 µM (inactive); in the assay with DU-145, 1.35 µM (inactive); in the assay on HCT-116 it was 2.96 µM (inactive). Besides, the GI50 in the assay with HL-60 was 2.39 µM (inactive); in the assay on IGROV-1 it was 2.71 µM (inactive); in the assay on MDA-MB-435, 1.42 µM (inactive); with NCI-H23, 1.55 µM (inactive); in the assay on NCI-H522, 2.01 µM (inactive); in the assay on NCI/ADR-RES, 2.79 µM (inactive). Besides, the GI50 in the assay on OVCAR-3 is 0.326 µM (active); in the assay with OVCAR-4, 12.2 µM (inactive); in the assay with OVCAR-8 it was 2.58 µM (inactive); in the assay on PC-3, 4.93 µM (inactive); in the assay with SNB-19, 2.52 µM (inactive); in the assay with SR it was 3.42 µM (inactive). In addition, the GI50 was 2 µM (inactive) with U-251 and 1.95 µM (inactive) in the assay with UACC-257.
